Experimental data taken from patent publication US10010547B2 (CASCADIAN THERAPEUTICS, INC., priority 2014, dated 2018).
pIC50: −log10 of the molar value. Counter-ions that a name gives are not always drawn. Like-named read-outs stand apart in the source and are kept apart here.

Key:
Chk-1 kinase = Chk-1 kinase (Homo sapiens (Human), UniProt O14757); test: Chk-1 Kinase Inhibiting Activity (33P-ATP filter assay, CHKtide substrate); assay type: biochemical; conditions: against Chk-1 kinase; read-out: IC50
Experimental: Chk-1 Kinase Inhibiting Activity
The compounds of the invention were tested for activity against Chk-1 kinase using the materials and protocols set out below.
Base Reaction buffer: 20 mM Hepes (pH 7.5), 10 mM MgCl2, 1 mM EGTA, 0.02% Brij35, 0.02 mg/ml BSA, 0.1 mM Na3VO4, 2 mM DTT, 1% DMSO
*Required cofactors are added individually to each kinase reaction
(i) Prepare indicated substrate in freshly prepared Base Reaction Buffer
(ii) Deliver any required cofactors to the substrate solution above
(iii) Deliver indicated kinase into the substrate solution and gently mix
(iv) Deliver compounds in DMSO into the kinase reaction mixture
(v) Deliver ^33P-ATP (specific activity 0.01 μCi/μl final) into the reaction mixture to initiate the reaction.
(vi) Incubate kinase reaction for 120 minutes at room temperature
(vii) Reactions are spotted onto P81 ion exchange paper (Whatman #3698-915)
(viii) Wash filters extensively in 0.1% phosphoric acid.
(ix) Dry filters and measure counts in scintillation counter
Recombinant full length construct, N-terminal GST tagged, purified from insect cells.
No special measures were taken to activate this kinase.
Final concentration in assay=0.5 nM
Peptide sequence: [[…]]
Final concentration in assay=20 μM
No additional cofactors are added to the reaction mixture
From the results obtained by following the above protocol, the IC50 values against Chk-1 kinase of each of the compounds of Examples 1-153 were determined and these are shown in Table 3.

MIA PaCa-2 cells = test: Gemcitabine Combination Cell Assay (Cell Titer Glo); assay type: cell-based; conditions: for pIC50 / IC50: Homo sapiens; for pIC50: Chk1 inhibitor alone, read-out: Chk1 IC50; for pIC50 / 10xLS / 2xLS: MIA PaCa-2 cells, 72 h; for 10xLS: approximate concentration of Chk1 inhibitor that results in a 10-fold reduction in the IC50 of gemcitabine alone; for 2xLS: approximate concentration of Chk1 inhibitor that results in a two-fold reduction in the IC50 of gemcitabine alone; for IC50: MIA PaCa-2, 72 h, read-out: Chk1 IC50 (nM)
Experimental: Gemcitabine Combination Cell Assay
Exponentially growing MIA PaCa-2 (ATCC CRL-1420) cells are treated with trypsin to remove cells from the plate surface. Approximately 10,000 cells/well are plated in 96 well plates in RPMI containing 10% fetal bovine serum, 1% sodium pyruvate and 1% L-GlutaMax. Cells are allowed to adhere to the plate surface overnight. Serial half-log dilutions of Chk1 inhibitor test compounds and gemcitabine are made with a final highest concentration of 3000 nM and 100 nM, respectively. Chk1 inhibitors and gemcitabine are combined so that each concentration of Chk1 inhibitor is added to each concentration of gemcitabine. Each drug is also tested as a single agent. Drugs are added to adherent cells (in duplicate) and incubated for 72 h. At 72 h the cells are treated with Promega Cell Titer Glo reagent for approximately 15 minutes. Luminescence (relative light units, RLU) is recorded using a BMG Polarstar Omega plate reader. The single agent concentration that results in a 50% reduction in total signal (IC50) is calculated using PRISM software and a four-parameter non-linear regression curve fit. For combination studies the RLUs are plotted using PRISM on an XY plot with the gemcitabine concentration on the X axis and RLU on the Y axis. The RLU for each concentration of Chk1 inhibitor is plotted as a function of gemcitabine concentration. The IC50 for gemcitabine alone and at each concentration of Chk1 is determined using a four-parameter non-linear regression curve fit. The approximate concentration of Chk1 inhibitor that results in a two and ten-fold reduction in the IC50 of gemcitabine alone is calculated as an indication of synergistic potency.
From the results obtained by following the above protocol, the IC50 values against MIAPaca-2 cells of the Chk1 inhibitor alone (Chk1 IC50), the approximate concentration of Chk1 inhibitor that results in a two-fold (2×LS) and a 10-fold (10×LS) reduction in the IC50 of gemcitabine alone of each of the compounds of Examples 1-154 are shown in Table 4.

Sequence of Chk-1 kinase (O14757 whole entry): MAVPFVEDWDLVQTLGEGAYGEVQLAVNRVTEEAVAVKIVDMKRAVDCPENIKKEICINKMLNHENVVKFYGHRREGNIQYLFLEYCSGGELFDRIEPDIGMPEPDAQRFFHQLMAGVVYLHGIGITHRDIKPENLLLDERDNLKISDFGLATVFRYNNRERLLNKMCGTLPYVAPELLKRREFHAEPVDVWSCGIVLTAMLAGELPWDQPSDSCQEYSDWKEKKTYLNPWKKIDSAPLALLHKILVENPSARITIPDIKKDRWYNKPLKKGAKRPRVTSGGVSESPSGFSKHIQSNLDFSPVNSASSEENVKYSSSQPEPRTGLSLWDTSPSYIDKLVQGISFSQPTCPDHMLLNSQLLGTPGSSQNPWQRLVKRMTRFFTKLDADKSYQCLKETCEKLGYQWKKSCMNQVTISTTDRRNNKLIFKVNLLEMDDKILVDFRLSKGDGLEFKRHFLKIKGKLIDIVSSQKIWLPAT

## COc1cc(CNCCN2CCOCC2)ccc1-c1cc(Nc2cnccn2)n[nH]1 [Example 10, (5-{2-methoxy-4-[(2-morpholin-4-yl-ethylamino)-methyl]-phenyl}-1H-pyrazol-3-yl)-pyrazin-2-yl-amine]
Chk-1 kinase
  pIC50: 7.96
MIA PaCa-2 cells
  pIC50: < 5.52
  10xLS: >3000 nM
  2xLS: 1000 nM

## COc1cc(C2CCN(C)CC2)ccc1-c1cc(Nc2cnc(C#N)cn2)n[nH]1 [Example 11, 5-{5-[2-Methoxy-4-(1-methyl-piperidin-4-yl)-phenyl]-1H-pyrazol-3-ylamino}-pyrazine-2-carbonitrile hydrochloride]
Chk-1 kinase
  pIC50: 10.32
MIA PaCa-2 cells
  IC50: 214 nM
  10xLS: <100 nM
  2xLS: 3 nM

## COc1cc(CNCC2CCN(C(=O)C3CC3)CC2)ccc1-c1cc(Nc2cnc(C#N)cn2)n[nH]1 [Example 12, 5-[5-(4-{[(1-cyclopropane-carbonyl-piperidin-4-ylmethyl)-amino]-methyl}-2-methoxy-phenyl)-1 H-pyrazol-3-ylamino]-pyrazine-2-carbonitrile]
Chk-1 kinase
  pIC50: 10.47
MIA PaCa-2 cells
  pIC50: 6.58
  10xLS: ~50 nM
  2xLS: <3 nM

## COc1cc(CNC2CCOCC2)ccc1-c1cc(Nc2cnc(C#N)cn2)n[nH]1 [Example 14, 5-[[5-[2-Methoxy-4-[(tetrahydropyran-4-ylamino)methyl]phenyl]-1H-pyrazol-3-yl]amino]pyrazine-2-carbonitrile hydrochloride]
Chk-1 kinase
  pIC50: 10.59
MIA PaCa-2 cells
  IC50: 894 nM
  10xLS: ~50 nM
  2xLS: <3 nM

## COc1cc(CN(C)CCN2CCOCC2)ccc1-c1cc(Nc2cnc(C#N)cn2)n[nH]1 [Example 15, 5-[[5-[2-methoxy-4-[[methyl(2-morpholinoethyl)amino]methyl]phenyl]-1H-pyrazol-3-yl]amino]pyrazine-2-carbonitrile]
Chk-1 kinase
  pIC50: 9.52
MIA PaCa-2 cells
  pIC50: 5.66
  10xLS: ~3000 nM
  2xLS: ~5 nM

## COc1cc(NCCN2CCOCC2)ccc1-c1cc(Nc2cnc(C#N)cn2)n[nH]1 [Example 16, 5-[[5-[2-methoxy-4-(2-morpholinoethylamino)phenyl]-1H-pyrazol-3-yl]amino]pyrazine-2-carbonitrile]
Chk-1 kinase
  pIC50: 10.07
MIA PaCa-2 cells
  pIC50: 5.75
  10xLS: 100 nM
  2xLS: <3 nM

## COc1cc(C2CCN(C(=O)CN(C)C)CC2)ccc1-c1cc(Nc2cnc(C#N)cn2)n[nH]1 [Example 17, 5-[[5-[4-[1-[2-(Dimethylamino)acetyl]-4-piperidyl]-2-methoxy-phenyl]-1H-pyrazol-3-yl]amino]pyrazine-2-carbonitrile hydrochloride]
Chk-1 kinase
  pIC50: 9.54
MIA PaCa-2 cells
  IC50: 1820 nM
  10xLS: 300 nM
  2xLS: 10 nM

## COc1cc(CN[C@H](C)CN2CCOCC2)ccc1-c1cc(Nc2cnc(C#N)cn2)n[nH]1 [Example 18, 5-[[5-[2-methoxy-4-[[[(1R)-1-methyl-2-morpholino-ethyl]amino]methyl]phenyl]-1H-pyrazol-3-yl]amino]pyrazine-2-carbonitrile]
Chk-1 kinase
  pIC50: 9.77
MIA PaCa-2 cells
  pIC50: 5.79
  10xLS: ~200 nM
  2xLS: ~5 nM

## COc1cc(CNC(C)(C)CN2CCOCC2)ccc1-c1cc(Nc2cnc(C#N)cn2)n[nH]1 [Example 19, 5-[[5-[4-[[(1,1-dimethyl-2-morpholino-ethyl)amino]methyl]-2-methoxy-phenyl]-1H-pyrazol-3-yl]amino]pyrazine-2-carbonitrile]
Chk-1 kinase
  pIC50: 9.54
MIA PaCa-2 cells
  pIC50: 5.79
  10xLS: ~200 nM
  2xLS: 3 nM

## COc1cc(C2CCNCC2)ccc1-c1cc(Nc2cnc(C#N)cn2)n[nH]1 [Example 20, 5-[[5-[2-methoxy-4-(4-piperidyl)phenyl]-1H-pyrazol-3-yl]amino]pyrazine-2-carbonitrile]
Chk-1 kinase
  pIC50: 9.54
MIA PaCa-2 cells
  pIC50: 5.95
  10xLS: 100 nM
  2xLS: ~5 nM
